According to ChEMBL document CHEMBL3102772, “New natural products as new leads for antibacterial drug discovery” (Bioorg Med Chem Lett, 2014):
Values after ≈ are worked out from the molar mass of the structure shown. Starred links: 1 amine or outer side, 2 acyl side, 3 side chain; linkers in the order of their positions; H or OH if unused. Positions of bridges follow the written chain, without caps; N, C: chain ends. Non-standard residues stand in square brackets, D forms with d. Residues, ends and D or L forms follow the SMILES beside them. X1 = CC(C)=CCc1ccc(Cl)c2[nH]cc(CC(N[*:1])C(=O)[*:2])c12; Trp(7-Cl) = N[CH](Cc1c[nH]c2c(Cl)cccc12)C(=O)O; Malonyl = O=C(CC(=O)[*:2])[*:1]; Cya = N[CH](CS(=O)(=O)O)C(=O)O; Dab = NCC[C@H](N)C(=O)O

Experiments:
[1] = tested on: Escherichia coli; assay: Antibacterial activity against Escherichia coli NCTC 10418 assessed as growth inhibition; assay type: functional
[2] = tested on: Bacillus subtilis; assay: Antibacterial activity against Bacillus subtilis assessed as growth inhibition; assay type: functional
[3] = tested on: Escherichia coli; assay: Antibacterial activity against Escherichia coli MB5746 harboring envA1/TolC efflux pump mutant assessed as growth inhibition after 20 hrs by agar dilution method; assay type: functional; details: MB5746, 20 h
[4] = tested on: Escherichia coli; assay: Antibacterial activity against Escherichia coli MB2884 assessed as growth inhibition after 20 hrs by agar dilution method; assay type: functional; details: MB2884, 20 h
[5] = tested on: Staphylococcus aureus; assay: Antibacterial activity against methicillin resistant Staphylococcus aureus COL MB5393 assessed as growth inhibition after 20 hrs by agar dilution method; assay type: functional; details: COL MB5393, 20 h
[6] = tested on: Staphylococcus aureus; assay: Antibacterial activity against methicillin sensitive Staphylococcus aureus MB2865 assessed as growth inhibition after 20 hrs by agar dilution method; assay type: functional; details: MB2865, 20 h
[7] = tested on: Pseudomonas aeruginosa; assay: Antibacterial activity against Pseudomonas aeruginosa ATCC 27853 infected in sc dosed mouse septisemia model measured at 1 to 5 hrs; assay type: functional; details: ATCC 27853, sc
[8] = tested on: Pseudomonas aeruginosa; assay: Antibacterial activity against Pseudomonas aeruginosa ATCC 27853 assessed as growth inhibition by microdilution method; assay type: functional
[9] = tested on: Escherichia coli; assay: Antibacterial activity against Escherichia coli SANK 70569 assessed as growth inhibition; assay type: functional
[10] = tested on: Staphylococcus aureus; assay: Antibacterial activity against 10 clinical isolates of methicillin resistant Staphylococcus aureus […] assessed as growth inhibition by broth dilution method; assay type: functional
[11] = tested on: HepG2; assay: Cytotoxicity against human HepG2 cells; assay type: cell-based
[12] = Cytotoxicity against human Fa2N-4 cells; assay type: cell-based
[13] = tested on: Staphylococcus aureus; assay: Antibacterial activity against Staphylococcus aureus assessed as growth inhibition; assay type: functional
[14] = tested on: Klebsiella pneumoniae; assay: Antibacterial activity against Klebsiella pneumoniae clinical isolate assessed as growth inhibition; assay type: functional
[15] = tested on: Pseudomonas aeruginosa; assay: Antibacterial activity against Pseudomonas aeruginosa clinical isolate assessed as growth inhibition; assay type: functional
[16] = tested on: Acinetobacter baumannii; assay: Antibacterial activity against Acinetobacter baumannii clinical isolate assessed as growth inhibition; assay type: functional
[17] = tested on: Escherichia coli; assay: Antibacterial activity against Escherichia coli clinical isolate assessed as growth inhibition; assay type: functional
[18] = Ratio of MIC for Staphylococcus epidermidis PAS9001 harboring SPase S92P mutant to MIC for wild type Staphylococcus epidermidis RP62A; assay type: functional
[19] = tested on: Staphylococcus epidermidis; assay: Antibacterial activity against Staphylococcus epidermidis PAS9001 harboring SPase S92P mutant assessed as growth inhibition after 24 hrs by micro-broth dilution method; assay type: functional; details: PAS9001, 24 h
[20] = tested on: Pseudomonas aeruginosa; assay: Antibacterial activity against Pseudomonas aeruginosa PAS2006 harboring SPase P84S mutant assessed as growth inhibition after 24 hrs by micro-broth dilution method; assay type: functional; details: PAS2006, 24 h
[21] = tested on: Escherichia coli; assay: Antibacterial activity against Escherichia coli PAS0232 harboring SPase P84S mutant assessed as growth inhibition after 24 hrs by micro-broth dilution method; assay type: functional; details: PAS0232, 24 h
[22] = tested on: Staphylococcus aureus; assay: Antibacterial activity against Staphylococcus aureus PAS8001 harboring SPase P29S mutant assessed as growth inhibition after 24 hrs by micro-broth dilution method; assay type: functional; details: PAS8001, 24 h
[23] = tested on: Staphylococcus epidermidis; assay: Antibacterial activity against wild type Staphylococcus epidermidis RP62A assessed as growth inhibition after 24 hrs by micro-broth dilution method; assay type: functional
[24] = tested on: Pseudomonas aeruginosa; assay: Bactericidal activity against Pseudomonas aeruginosa PA14 after 16 to 20 hrs by agar diffusion assay; assay type: functional
[25] = tested on: Pseudomonas aeruginosa; assay: Antibacterial activity against Pseudomonas aeruginosa PA14 assessed as growth inhibition after 16 to 20 hrs by agar diffusion assay; assay type: functional, organism-based
[26] = tested on: Staphylococcus aureus; assay: Antibacterial activity against 24 clinical isolates of methicillin resistant Staphylococcus aureus […] assessed as growth inhibition by broth dilution method; assay type: functional

SMILES: CCC[C@@H]1OC(=O)[C@@H](C)C[C@H](C)CCCCC(=O)CCC[C@@H](CC)/C=C/C=C(\COC)CC[C@@H](O)[C@@H](O)C[C@H](O)CNC1=O
- MIC [1]: 6.25 µg/mL (≈ 10 µM)

SMILES: C/C(=C\c1ccc(N(C)C)cc1)C(=O)N[C@@H]1[C@H](O)[C@@H](O)[C@H]2OC(OC(C(=O)O)C(O)CO)O[C@H]2[C@@H]1N(C)C (stereo partly drawn)
- MIC [2]: 70 µg/mL (≈ 130 µM)

SMILES: C=C1CC[C@@H](O[C@H]2C[C@@](O)([C@H](C)NC(=O)c3[nH]c(C)c(Cl)c3Cl)[C@H](O)[C@@H](C)O2)[C@@H]2C=C[C@H](C)C(/C(O)=C3\C(=O)[C@H](C(C)C)N([C@H]4O[C@H](C)[C@H](OC(N)=O)[C@H](OC(C)=O)[C@@H]4OC)C3=O)[C@@H]12 (stereo partly drawn) [KIBDELOMYCIN]
- MIC [3]: 32 µg/mL (≈ 34 µM)
- MIC [4]: > 64 µg/mL
- MIC [5]: 0.5 µg/mL (≈ 0.532 µM)
- MIC [6]: 2 µg/mL (≈ 2.13 µM)

SMILES: CC[C@H](C)[C@@H]1NC(=O)[C@H](Cc2c[nH]c3ccccc23)NC(=O)[C@H]([C@@H](C)O)NC(=O)[C@@H]2CCCN2C(=O)[C@@H]2CCCN2C(=O)[C@H](CCN)NC(=O)[C@H](C)NC(=O)[C@H](CCN)NC(=O)[C@H](CCN)NC(=O)[C@H](Cc2c[nH]c3ccccc23)NC(=O)[C@H](CCN)NC(=O)[C@H](CCN)NC(=O)[C@H](CCCCN)NC(=O)[C@H](CCN)NC1=O (cyclo(A[Dab]PPTWI[Dab]K[Dab][Dab]W[Dab][Dab]))
- ED50 [7]: 0.25 mg/kg
- MIC [8]: 0.008 µg/mL

SMILES: CCCCCC[C@H]1OC(=O)CNC(=O)[C@H]([C@H](C)O)NC(=O)[C@H](CO)NC(=O)[C@H]([C@H](C)CC)NC(=O)[C@H](CC(C)C)N(C)C(=O)[C@@H]1C
- MIC [9]: 12.5 µg/mL (≈ 19.1 µM)

SMILES: CCCC(C)/C=C(/C)C(=O)OC(CCCCCCC/C=C/C(=O)NCCC(=O)NC(CS(=O)(=O)O)C(=O)N(C)C1C(=O)NC(C)C(=O)NC(C(=O)O)Cc2ccc(OS(=O)(=O)O)c(c2)-c2cc1cc(OS(=O)(=O)O)c2O[C@H]1O[C@H](C)[C@@H](O)[C@H](O)[C@@H]1O)CCC(C)C (stereo partly drawn)
- MIC [10]: 0.5 µg/mL (≈ 0.371 µM)

SMILES: [C-]#[N+]C(=C)[C@@](Cc1ccc(OC)cc1)([N+]#[C-])C1C[C@@H](OC(=O)CO)CC[C@@H]1O (stereo partly drawn)
- Activity [11]: > 512 µg/mL
- Activity [12]: > 512 µg/mL
- MIC [13]: > 128 µg/mL
- MIC [14]: 0.256 µg/mL (≈ 0.667 µM)
- MIC [15]: 0.256 µg/mL (≈ 0.667 µM)
- MIC [16]: 0.256 µg/mL (≈ 0.667 µM)
- MIC [17]: 0.256 µg/mL (≈ 0.667 µM)

SMILES: CCCCCCCCCCCCCCCC(=O)N(C)[C@H](CO)C(=O)N[C@H](C)C(=O)NCC(=O)N(C)[C@@H]1C(=O)N[C@@H](C)C(=O)N[C@H](C(=O)O)Cc2ccc(O)c(c2)-c2cc1ccc2O [ARYLOMYCIN C16]
- Ratio [18]: 32
- MIC [19]: 8 µg/mL (≈ 9.08 µM)
- MIC [20]: 8 µg/mL (≈ 9.08 µM)
- MIC [21]: 4 µg/mL (≈ 4.54 µM)
- MIC [22]: 2 µg/mL (≈ 2.27 µM)
- MIC [23]: 0.25 µg/mL (≈ 0.284 µM)

SMILES: CCCCCCC(CCCCCC(O)C(N)=O)OC(=O)C1CC=CN1C(=O)c1ccccc1O (stereo not drawn)
- MBC [24]: 100 µg/mL (≈ 211 µM)
- IC50 [25]: 0.16 µg/mL (≈ 0.337 µM)

SMILES: CCCCCCCCCC[C@H]1OC(=O)CNC(=O)[C@H]([C@H](C)O)NC(=O)[C@H](CO)NC(=O)[C@H]([C@H](C)CC)NC(=O)[C@H](CC(C)C)N(C)C(=O)[C@@H]1C
- MIC [9]: 1.56 µg/mL (≈ 2.19 µM)

SMILES: CC(C)=CCc1ccc(Cl)c2[nH]cc(CC3NC(=O)C(Cc4c[nH]c5c(Cl)cccc45)NC(=O)C4CCCN4C(=O)C(CS(=O)(=O)O)NC(=O)C(NC(=O)C(NC(=O)C(C)NC(=O)CC(=O)O)C(C)C)COC(=O)C(CO)NC(=O)C(CC(C)C)NC(=O)C(C(C)C)NC3=O)c12 (stereo not drawn) (Malonyl-AVS[Cya]P[Trp(7-Cl)][X1]VLS; ester 3-C; configuration not given here)
- MIC [26]: 16 µg/mL (≈ 11.4 µM)

SMILES: CCC[C@@H]1OC(=O)[C@@H](C)C[C@H](C)CCCCC(=O)CCC[C@@H](CC)CC/C=C(\COC)CC[C@@H](O)[C@@H](O)C[C@H](O)CNC1=O
- MIC [1]: 3.12 µg/mL (≈ 4.98 µM)
